Experimental data: patent publication US3968214A, “5-Methylthio-pyrimidine vasodilators” (Produits Chimiques Ugine Kuhlmann, priority 1973, dated 1976)
Read-outs that look alike come from different tables or passages of the source.

Columns and labels:
[1] = system: isolated duodenum of rabbit, contractions caused by acetylcholine; experiment: Spasmolytic activity, neurotrope versus acetylcholine, isolated duodenum (Magnus)
Description: (§1) The spasmolytic activities are known by means of the technique of R. Magnus (Arch. Ges. Physiol., 1904, 102, 123) on the isolated duodenum of rabbits. The spasmolytic neurotropes inhibit the contractions of the organ caused by acetylcholine, while the musculotropes prevent the spasms induced by barium chloride. The EC 50 expressed in mg/litre are collected in the following Table where EC denotes "Effective concentration".

[2] = system: isolated duodenum of rabbit, spasms induced by barium chloride; experiment: Spasmolytic activity, musculotrope versus BaCl2, isolated duodenum (Magnus)
Description: as §1

[3] = Acute toxicity in mice, intravenous and oral (LD50); type: in vivo; conditions: mouse, in vivo
Description: The acute toxicities of the compounds according to the invention have been determined CD 1 mice (Charles RIVER) by intravenous and oral methods. The LD50 calculated by the quantal cumulative method of J. J. Reed and H. Muench (Amer. J. Hyg. 1938, 27, 493) are collected in the following Table: […]

[4] = system: abdominal spasms caused in mice by 2-phenyl-1,4-benzoquinone; experiment: Analgesic activity: abdominal spasms caused by intraperitoneal 2-phenyl-1,4-benzoquinone (P.B.Q.); type: in vivo; conditions: for ED50: Mus musculus, mice, oral, read-out: Analgesic activity P.B.Q. AD 50
Description: (§2) The analgesic activities have been investigated with respect to abdominal spasms caused in mice by the intraperitoneal injection of 2-phenyl-1,4-benzoquinone according to E. Siegmund, E. Cadmus and G. Lu, Proc. Soc. exp. Biol. Med., 1957, 95, 729-731. The central antiserotonin properties have been determined by the "Head-twitch" technique in mice according to S. J. Corne, R. W. Pickering and B. T. Warner, Brit. J. Pharmacol., 1963, 20, 106-120. In this test, the antiserotonin products inhibit the sudden shaking of the head induced in mice by 5-hydroxy-tryptophan, the biological precursor of serotonin.

[5] = system: serotonin (shaking of the head induced by 5-hydroxy-tryptophan); experiment: Central antiserotonin activity: Head-twitch induced by 5-hydroxy-tryptophan; type: in vivo, mice; conditions: for ED50: Mus musculus, mice, oral, read-out: Antiserotonin activity Head-twitch AD 50; for central antiserotonin activity (in words): given orally to mice
Description: as §2, with “Biol. Med., 1957, 95, 729-731.” left out, “J. Pharmacol., 1963, 20, 106-120.” left out

isolated rabbit heart = experiment: Coronaro-dilatatory activity, isolated heart (Langendorff modified by Anderson); conditions: for coronaro-dilatatory activity (in words): isolated rabbit heart
Description: The technique of Langendorff, modified by F. E. Anderson, (J. Pharmacol. exp. Therap., 1948, 91, 135) using isolated rabbit heart permits the coronaro-dilatatory activity of the products to be studied. In this text, the cardiac perfusion liquid contains 0.5 UI/1 of posthypophysis. The results are expressed in the percentage variation of the coronary flow after affusion of the product to be tested, compared with the initial flow.

glycemia = experiment: Hypoglycemiant activity, variation of glycemia after 4 days of daily oral treatment; type: in vivo, male CD rats (Charles RIVER); conditions: rat
Experimental: The hypoglycemiant properties have been studied on the male CD rats (Charles RIVER) weighing 200 to 250 g, in which the glycemia is controlled before treatment and then after 4 days of daily oral treatment. The seric glucose is determined by the method of W. S. Hoffmann (J. Biol. Chem., 1937, 120, 51). Groups of 10 rats are used and the hypoglycemiant activity is expressed by the percentage variation of the average glycemia of the treated animals with respect to that of the controls. If it is necessary, the statistical significance of the difference is determined by the test of the coefficient "t" of Student.

[6] = intravenous, read-out: Acute toxicity to mice LD 50, intravenous
[7] = oral, read-out: Acute toxicity to mice LD 50, orally

Structure (SMILES) | Spasmolytic activity EC 50, neurotrope versus acetylcholine [1] | Spasmolytic activity EC 50, musculotrope versus BaCl2 [2] | LD50 [3, 6] | LD50 [3, 7] | ED50 [4] | ED50 [5] | central antiserotonin activity (in words) [5] | Increase of the coronary flow (isolated rabbit heart; dose 0.01 mg) | Increase of the coronary flow (isolated rabbit heart; dose 0.03 mg) | Increase of the coronary flow (isolated rabbit heart; dose 0.10 mg) | Increase of the coronary flow (isolated rabbit heart; dose 0.30 mg) | coronaro-dilatatory activity (in words) (isolated rabbit heart) | hypoglycemiant properties (in words) (glycemia) | analgesic activity (in words) ([4]; given orally to mice) | Increase of the coronary flow (isolated rabbit heart; dose 0.003 mg) | neurotropic spasmolytic activity (in words) [1]
CCN(CC)CCNc1nc(N(C)c2ccccc2)nc(Cl)c1SC [Example 2, 2-N-methyl-N-phenylamino-4-(2'-diethylamino)-ethylamino-5-methylthio-6-chloro-pyrimidine] | 1.50 µg/mL | 0.80 µg/mL | 43 mg/kg | 225 mg/kg | > 100 mg/kg | 95 mg/kg | central antiserotonine | 56% | 58% | 64% | 91% | interesting coronaro-dilatatory activities |  |  |  | 
CCN(CC)CCNc1nc(N(CC)CC)nc(Cl)c1SC [Example 3, 2-diethylamino-4-(2'-diethylamino)-ethyl-amino-5-methylthio-6-chloro-pyrimidine] | 1.30 µg/mL | 0.30 µg/mL | 64 mg/kg | 225 mg/kg | > 100 mg/kg | 35 mg/kg | central antiserotonine |  |  |  |  |  |  |  |  | 
CCN(CC)CCNc1nc(N(C)c2ccc(Cl)cc2)nc(Cl)c1SC [Example 6, 2-N-methyl-2-N-(4-chloro-phenyl)amino-4-(2'-diethylamino)-ethylamino-5-methylthio-6-chloro-pyrimidine] |  |  |  | 610 mg/kg |  | 65 mg/kg | central antiserotonine |  |  |  |  |  | strong hypoglycemiant properties |  |  | 
CSc1c(Cl)nc(N(C)c2ccccc2)nc1NCCN(C(C)C)C(C)C [Example 12, 2-N-methyl-N-phenylamino-4-(2'-di-isopropyl-amino)-ethylamino-5-methylthio-6-chloro-pyrimidine] |  |  |  | 600 mg/kg | 100 mg/kg |  |  |  |  |  |  |  | strong hypoglycemiant properties |  |  | 
CSc1c(Cl)nc(N2CCCCC2)nc1NCCN(C(C)C)C(C)C [Example 13, 2-piperidino-4-(2'-diisopropylamino)-ethylamino-5-methylthio-6-chloro-pyrimidine] |  |  |  | > 900 mg/kg |  | 185 mg/kg |  |  |  |  |  |  | strong hypoglycemiant properties |  |  | 
CCN(CC)c1nc(Cl)c(SC)c(NCCN(C(C)C)C(C)C)n1 [Example 16, 2-diethylamino-4-(2'-diisopropylamino)-ethylamino-5-methylthio-6-chloro-pyrimidine] |  | 0.30 µg/mL |  | 600 mg/kg | 70 mg/kg | 90 mg/kg | central antiserotonine | 52% |  |  |  | interesting coronaro-dilatatory activities |  | marked analgesic activity | 16% | 
CSc1c(Cl)nc(N(C)c2cccc(C(F)(F)F)c2)nc1NCCN(C(C)C)C(C)C [Example 17, 2-N-methyl-N(3-trifluoromethyl-phenyl)-amino-4-(2'-diisopropylamino)-ethylamino-5-methylthio-6-chloro-pyrimidine] |  | 0.50 µg/mL |  | > 900 mg/kg |  | 400 mg/kg |  |  |  |  |  |  | strong hypoglycemiant properties |  |  | 
COc1nc(N(C)c2ccccc2)nc(NCCN(C(C)C)C(C)C)c1SC [Example 24, 2-N-methyl-N,phenylamino-4-(2'-diisopropylamino)-ethylamino-5-methyl-thio-6-methoxy-pyrimidine] | 0.12 µg/mL | 0.13 µg/mL | 22 mg/kg | 600 mg/kg |  |  |  | 32% | 58% | 67% |  | interesting coronaro-dilatatory activities | strong hypoglycemiant properties |  | 26% | necessary to call attention
